In the NIST ThermoML archive (doi:10.1021/je800635g):

Conditions: Liquid, Falling or rolling sphere viscometry

Cc1ccc(C)cc1 [1,4-dimethylbenzene]
viscosity [mPa·s]
Conditions | 313.15 K | 333.15 K | 353.15 K | 373.15 K | 393.15 K | 413.15 K | 433.15 K | 453.15 K | 473.15 K
100 kPa | 0.499 | 0.409 | 0.34 | 0.292 | – | – | – | – | –
800 kPa | 0.5029 | 0.412 | 0.346 | 0.297 | 0.254 | 0.221 | 0.192 | 0.168 | –
1600 kPa | 0.51 | 0.414 | 0.35 | 0.3 | 0.258 | 0.223 | 0.197 | 0.17 | 0.159
2400 kPa | 0.516 | 0.417 | 0.356 | 0.303 | 0.262 | 0.226 | 0.201 | 0.172 | 0.163
3200 kPa | 0.521 | 0.419 | 0.361 | 0.305 | 0.266 | 0.228 | 0.206 | 0.175 | 0.167

CC(=O)O [acetic acid]
viscosity [mPa·s]
Conditions | 313.15 K | 333.15 K | 353.15 K | 373.15 K | 393.15 K | 413.15 K | 433.15 K | 453.15 K | 473.15 K
100 kPa | 0.903 | 0.713 | 0.574 | 0.471 | – | – | – | – | –
800 kPa | 0.91 | 0.72 | 0.582 | 0.478 | 0.394 | 0.333 | 0.281 | 0.244 | –
1600 kPa | 0.917 | 0.727 | 0.59 | 0.486 | 0.402 | 0.34 | 0.287 | 0.251 | 0.213
2400 kPa | 0.924 | 0.735 | 0.598 | 0.494 | 0.41 | 0.347 | 0.294 | 0.258 | 0.22
3200 kPa | 0.932 | 0.743 | 0.605 | 0.502 | 0.418 | 0.354 | 0.302 | 0.264 | 0.226

CCCCCCCCCC [decane]
Conditions | viscosity [mPa·s]
313.15 K, 100 kPa | 0.7051
323.15 K, 100 kPa | 0.6356
333.15 K, 100 kPa | 0.5646
333.15 K, 800 kPa | 0.5732
333.15 K, 1600 kPa | 0.5714
333.15 K, 2400 kPa | 0.5756
333.15 K, 3200 kPa | 0.5792
343.15 K, 100 kPa | 0.5069
353.15 K, 100 kPa | 0.4514
363.15 K, 100 kPa | 0.4136
373.15 K, 100 kPa | 0.3729
373.15 K, 800 kPa | 0.3773
373.15 K, 1600 kPa | 0.3818
373.15 K, 2400 kPa | 0.3851
373.15 K, 3200 kPa | 0.3906
393.15 K, 1600 kPa | 0.3216
413.15 K, 1600 kPa | 0.279
433.15 K, 1600 kPa | 0.2328
453.15 K, 1600 kPa | 0.2072
473.15 K, 1600 kPa | 0.174

Cc1ccccc1 [toluene]
Conditions | viscosity [mPa·s]
313.15 K, 100 kPa | 0.4651
323.15 K, 100 kPa | 0.4158
333.15 K, 100 kPa | 0.3758
333.15 K, 800 kPa | 0.3839
333.15 K, 1600 kPa | 0.3889
333.15 K, 2400 kPa | 0.3955
333.15 K, 3200 kPa | 0.4008
343.15 K, 100 kPa | 0.3428
353.15 K, 100 kPa | 0.3137
363.15 K, 100 kPa | 0.2901
373.15 K, 100 kPa | 0.268
373.15 K, 800 kPa | 0.2706
373.15 K, 1600 kPa | 0.2742
373.15 K, 2400 kPa | 0.278
373.15 K, 3200 kPa | 0.2822
393.15 K, 1600 kPa | 0.2397
413.15 K, 1600 kPa | 0.2058
433.15 K, 1600 kPa | 0.1769
453.15 K, 1600 kPa | 0.1517
473.15 K, 1600 kPa | 0.1353
